Source: patent US4113957A, “1-Substituted pyrazoles” (Bayer Aktiengesellschaft, priority 1975, dated 1978)

System: venous thrombs (left jugular vein)
Assay: Antithrombotic action: thromb formation in supercooled jugular vein of rats
Format: in vivo
Settings: Rattus norvegicus, po, 10 mg/kg orally, reduction of thromb size vs control, after 4 hours
Method: The left jugular vein of rats weighing 170 to 180 g was exposed under ether narcosis and supercooled to -12° C. for 2 minutes to stimulate thromb formation. The thromb was isolated from the vein 4 hours later, and was weighed. The test animals were given the test preparation in tragacanth mucilage immediately before supercooling the wall of the blood vessel. As a result, the protective antithrombotic activity was tested in the first 4 hours after stimulating thromb formation.

**Q.** `Cc1cc(OC(=O)c2ccco2)n(CCOc2ccc3ccccc3c2)n1` [Example 20, 5-(Furyl-(2)-carbonyloxy)-3-methyl-1-(2-(β-naphthyloxy)-ethyl)-pyrazole] was tested. Which inhibition at 10 mg/kg did it give?
**A.** The inhibition at 10 mg/kg was 61%.
